Patent publication US11292812B2, “3′3′-cyclic dinucleotides” (Institute of Organic Chemistry and Biochemistry, ASCR, V.V.I, priority 2018, dated 2022)

Tests used:
AQ STING (G230A-R293Q) = target: T1, AQ STING (G230A-R293Q) (Homo sapiens, UniProt Q86WV6, G230A/H232R/R293Q); test: Differential Scanning Fluorimetry with AQ STING; assay type: binding; settings: thermal shift, truncated human AQ STING 0.1 mg/ml, 150 μM CDN; for ΔTm at 150 µM: read-out: DSF ΔTm AQ STING
T1 construct: truncated human WT STING or AQ STING (amino acid residues 140-343); 8xHis (N, cleaved yes); SUMO (N, cleaved yes); made in house; host or cells: E. coli Rosetta-gami B (DE3)
Experimental: (§1) Purified PCR products were cleaved with restriction enzymes BamHI (cat. #R0136S, NEB, Ipswich, USA) and NotI (cat. #R0189S, NEB, Ipswich, USA) and cloned into the pSUMO vector linearized with the identical enzymes.
(§2) DNase I (cat. #D5025, Sigma Aldrich, Czech Republic) and RNase A (cat. #R6513, Sigma Aldrich, Czech Republic) were added (final concentration 50 μg/ml) together with MgCl2 (final concentration 5 mmol·l^−1) to the homogenate and bacteria were lysed using French Press G-M™ High-Pressure Cell Press Homogenizer (1500 psi, 3 cycles). […] The resin was poured into a chromatography column, washed with 50 ml buffer A (50 mmol·l^−1 TrisCl (pH 8.0), 800 mmol·l^−1 NaCl, 3 mmol·l^−1 β-mercaptoethanol; 10% glycerol; 20 mmol·l^−1 imidazole) and 8-His-SUMO tagged STING proteins were eluted with 15 ml buffer A containing 300 mmol·l^−1 imidazole. […] Proteins were concentrated with Amicon® Ultra-15 10 K device (cat. #UFC901008, Merck Millipore, Billerica, USA) and flash frozen in liquid N2.
(§3) 20 μL solutions of the reaction mixtures were pipetted in triplicates into 96 well optical reaction plates and thermal denaturation of samples were performed on real time PCR cycler (LightCycler® 480 Instrument II—Roche, Basel, Switzerland). The first derivative of the thermal denaturation curves was performed to calculate denaturing temperatures of STING-CDN complexes and STING apoproteins. The thermal shift for each CDN was calculated by subtracting the average denaturing temperature of STING apoprotein from the average denaturing temperature of STING CDN complex.

WT STING [1] = target: T2, WT STING (Homo sapiens, UniProt Q86WV6, H232R); test: Digitonin assay using 293T wtSTING-FL reporter cells; assay type: cell-based; settings: 293T wtSTING-FL cells, ISRE firefly luciferase reporter, digitonin buffer 30 minutes, then 5 hours
Excerpt: Two complementary oligonucleotides of the sequence […] […] […] […] […] […] […] The oligonucleotides were mixed in equal molar amounts, hybridized, and cleaved by restriction endonucleases HindIII (cat. #. R0104S, NEB, Ipswich, USA) and BglII (cat. #R0144S, NEB, Ipswich, USA). Ultimately, they were ligated into plasmid pGL4.27 (cat. #E6651, Promega, Madison, USA) linearized with the same enzymes. As result the sequence with four ISRE sites was placed upstream of the minimum promoter of firefly luciferase reporter gene.
After 5 minutes incubation at room temperature (RT), 250 μL of the mixture was added dropwise to the cells in one well. Cells were incubated 36 hours at 37° C. with 5% CO2, and then detached with 0.05% Trypsin and 0.22 g/L EDTA (both cat. #L0941, Biowest, Riverside, USA).
Transfected cells were seeded onto poly-D-lysine coated six well plates at density 50,000 cells per 1 cm^2 in DMEM medium with high glucose containing 10% heat inactivated FBS, 30 μg/mL blasticidin (cat. #ant-bl-05, InvivoGen, San Diego, USA), 0.06 mg/ml Penicillin G and 0.1 mg/ml Streptomycin Sulfate (both cat. #. L0018, Biowest, Riverside, USA). The medium was replenished every 3-4 days until visible colonies of cells resistant to blasticidin were formed.
Blasticidin resistant cells stably expressing WT STING were further transfected with pGL64.27-4×ISRE plasmid following the same procedure as described above. […] Homogeneous culture of stably double transfected cells was prepared by limiting dilution of cells in 96 well plates and wells with cells were selected that originated from a single cell.
The medium was removed next day and three fold serial dilutions of compounds in Digitonin buffer containing 50 mmol·l^−1 HEPES (cat. #H3375, Sigma Aldrich, Czech Republic) pH 7.0, 100 mmol·l^−1 KCl, 3 mmol·l^−1 MgCl2, 0.1 mmol·l^−1 DTT (cat. #D0632, Sigma Aldrich, Czech Republic), 85 mmol·l^−1 Sucrose (cat. #S7903, Sigma Aldrich, Česká Republika), 0.2% BSA (cat. #A2153, Sigma Aldrich, Czech Republic), 1 mmol·l^−1 ATP (cat. #A1852, Sigma Aldrich, Czech Republic), 0.1 mmol·l^−1 GTP (cat. #G8877, Sigma Aldrich, Czech Republic), and 10 μg/mL Digitonin A (cat. #D141, Sigma Aldrich, Czech Republic) were added to the cells. The buffer was removed after 30 minutes incubation at 37° C. with 5% CO2, the cells were washed once with 100 μl of cultivation medium, and 100 μl of medium was added to each well. The plates with cells were incubated for 5 hours at 37° C. with 5% CO2, 50 μl of the medium was removed and 30 μl of ONE-Glo™ Luciferase Assay System reagent (cat. #E6120, Promega, Madison, USA) was added to each well. Luminesce was read on Synergy H1 (Biotek, Winooski, USA).
Target sequence in this assay (Q86WV6 whole entry H232R): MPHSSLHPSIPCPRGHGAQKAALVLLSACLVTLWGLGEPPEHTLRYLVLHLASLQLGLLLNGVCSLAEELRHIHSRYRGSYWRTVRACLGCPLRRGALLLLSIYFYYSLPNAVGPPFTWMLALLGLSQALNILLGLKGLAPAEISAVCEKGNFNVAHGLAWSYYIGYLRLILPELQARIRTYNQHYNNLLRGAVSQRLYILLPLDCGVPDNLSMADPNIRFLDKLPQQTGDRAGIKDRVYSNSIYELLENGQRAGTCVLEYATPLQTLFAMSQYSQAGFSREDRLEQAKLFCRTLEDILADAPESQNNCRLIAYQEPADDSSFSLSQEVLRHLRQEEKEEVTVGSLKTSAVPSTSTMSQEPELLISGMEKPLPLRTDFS

WT STING [2] = target: T2, WT STING; test: Differential Scanning Fluorimetry with WT STING; assay type: binding; design: truncated human WT STING or AQ STING (amino acid residues 140-343); 8xHis (N, cleaved yes); SUMO (N, cleaved yes); made in house; host or cells: E. coli Rosetta-gami B (DE3); settings: thermal shift, truncated human WT STING 0.1 mg/ml, 150 μM CDN; for ΔTm at 150 µM: read-out: DSF ΔTm WT STING
Experimental: as §1, §2, §3
Target sequence in this assay (Q86WV6 140-343 H232R): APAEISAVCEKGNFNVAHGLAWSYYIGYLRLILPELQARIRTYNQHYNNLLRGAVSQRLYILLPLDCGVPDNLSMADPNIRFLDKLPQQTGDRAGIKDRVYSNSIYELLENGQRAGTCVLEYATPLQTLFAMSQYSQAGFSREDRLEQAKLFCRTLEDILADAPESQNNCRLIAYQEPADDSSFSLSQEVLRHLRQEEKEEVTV

T1 sequence (Q86WV6 140-343 G230A/H232R/R293Q): as the sequence (Q86WV6 140-343 H232R) above, with G91A, R154Q counted along it

2-amino-9-((2R,3R,3aS,7aR,9R,10R,10aS,15aR)-2-(6-amino-9H-purin-9-yl)-3,5,10,13-tetrahydroxy-5,13-dioxidodecahydro-2H-difuro[3,2-d:3′,2′-k][1,3,7,10]tetraoxa[2,8]diphosphacyclotridecin-9-yl)-1,9-dihydro-6H-purin-6-one [Example 2]
DSF ΔTm AQ STING (AQ STING (G230A-R293Q)): 3.3 °C | EC50 (WT STING [1]): 10400 nM | DSF ΔTm WT STING (WT STING [2]): 0.1 °C

2-amino-9-((2R,3aS,7aR,9R,10R,10aR,15aR)-9-(6-amino-9H-purin-9-yl)-10-fluoro-5,13-dihydroxy-5,13-dioxidodecahydro-2H-difuro[3,2-d:3′,2′-k][1,3,7,10]tetraoxa[2,8]diphosphacyclotridecin-2-yl)-1,9-dihydro-6H-purin-6-one [Example 15]
DSF ΔTm AQ STING (AQ STING (G230A-R293Q)): 12.7 °C | EC50 (WT STING [1]): 110 nM | DSF ΔTm WT STING (WT STING [2]): 4.0 °C

Nc1nc2c(ncn2[C@@H]2O[C@@H]3COP(=O)(O)O[C@@H]4[C@H](O)[C@@H](COP(=O)(O)O[C@@H]2[C@@H]3O)O[C@H]4n2cnc3c(N)ncnc32)c(=O)[nH]1 [2′2′-cGAMP, reference compound]
DSF ΔTm AQ STING (AQ STING (G230A-R293Q)): 19.4 °C | EC50 (WT STING [1]): 30 nM | DSF ΔTm WT STING (WT STING [2]): 11.5 °C

Nc1ncnc2c1ncn2[C@@H]1O[C@@H]2COP(=O)(O)O[C@H]3[C@@H](O)[C@H](n4cnc5c(N)ncnc54)O[C@@H]3COP(=O)(O)O[C@H]2[C@H]1O [3′3′-c-di-AMP, reference compound]
DSF ΔTm AQ STING (AQ STING (G230A-R293Q)): 9.3 °C | EC50 (WT STING [1]): 300 nM | DSF ΔTm WT STING (WT STING [2]): 2.6 °C

Nc1nc2c(ncn2[C@@H]2O[C@@H]3COP(=O)(O)O[C@H]4[C@@H](O)[C@H](n5cnc6c(=O)[nH]c(N)nc65)O[C@@H]4COP(=O)(O)O[C@H]3[C@H]2O)c(=O)[nH]1 [3′3′-c-di-GMP, reference compound]
DSF ΔTm AQ STING (AQ STING (G230A-R293Q)): 7.7 °C | EC50 (WT STING [1]): 5800 nM | DSF ΔTm WT STING (WT STING [2]): 2.6 °C

Nc1nc2c(ncn2[C@@H]2O[C@@H]3COP(=O)(O)COC4C(O)[C@H](n5cnc6c(N)ncnc65)O[C@@H]4COP(=O)(O)OC3C2O)c(=O)[nH]1 (stereo partly drawn) [Example 3, 2-amino-9-((2R,3R,3aS,7aR,9R,10R,10aS,15aR)-9-(6-amino-9H-purin-9-yl)-3,5,10,13-tetrahydroxy-5,13-dioxidodecahydro-2H-difuro[3,2-d:3′,2′-k][1,3,7,10]tetraoxa[2,8]diphosphacyclotridecin-2-yl)-1,9-dihydro-6H-purin-6-one]
ΔTm at 150 µM (AQ STING (G230A-R293Q)): 3.1 °C | EC50 (WT STING [1]): 12500 nM | ΔTm at 150 µM (WT STING [2]): 0 °C

Nc1nc2c(ncn2[C@@H]2O[C@@H]3COP(=O)(O)OC4C(F)[C@H](n5cnc6c(N)ncnc65)O[C@@H]4COP(=O)(O)COC3C2O)c(=O)[nH]1 (stereo partly drawn) [Example 4, 2-amino-9-((2R,3R,3aR,7aR,9R,10R,10aS,15aR)-2-(6-amino-9H-purin-9-yl)-3-fluoro-5,10,13-trihydroxy-5,13-dioxidodecahydro-2H-difuro[3,2-d:3′,2′-k][1,3,7,10]tetraoxa[2,8]diphosphacyclotridecin-9-yl)-1,9-dihydro-6H-purin-6-one]
ΔTm at 150 µM (AQ STING (G230A-R293Q)): 13.6 °C | EC50 (WT STING [1]): 50 nM | ΔTm at 150 µM (WT STING [2]): 4.8 °C

Nc1nc2c(ncn2[C@@H]2O[C@@H]3COP(=O)(O)COC4C(O)[C@H](n5cnc6c(N)ncnc65)O[C@@H]4COP(=O)(O)OC3C2F)c(=O)[nH]1 (stereo partly drawn) [Example 5, 2-amino-9-((2R,3R,3aR,7aR,9R,10R,10aS,15aR)-9-(6-amino-9H-purin-9-yl)-3-fluoro-5,10,13-trihydroxy-5,13-dioxidodecahydro-2H-difuro[3,2-d:3′,2′-k][1,3,7,10]tetraoxa[2,8]diphosphacyclotridecin-2-yl)-1,9-dihydro-6H-purin-6-one]
ΔTm at 150 µM (AQ STING (G230A-R293Q)): 12 °C | EC50 (WT STING [1]): 100 nM | ΔTm at 150 µM (WT STING [2]): 4.1 °C

Nc1nc2c(ncn2[C@@H]2O[C@@H]3COP(=O)(O)COC4C(O)[C@H](n5cnc6c(=O)[nH]c(N)nc65)O[C@@H]4COP(=O)(O)COC3C2O)c(=O)[nH]1 (stereo partly drawn) [Example 6, 9,9′-((2R,3R,3aS,8aR,10R,11R,11aS,16aR)-3,6,11,14-tetrahydroxy-6,14-dioxidododecahydrodifuro[3,2-e:3′,2′-l][1,4,8,11]tetraoxa[2,9]diphosphacyclotetradecine-2,10-diyl)bis(2-amino-1,9-dihydro-6H-purin-6-one)]
ΔTm at 150 µM (AQ STING (G230A-R293Q)): 0 °C | EC50 (WT STING [1]): > 50000 nM | ΔTm at 150 µM (WT STING [2]): 0.1 °C

Nc1nc2c(ncn2[C@@H]2O[C@@H]3COP(=O)(O)COC4C(F)[C@H](n5cnc6c(N)ncnc65)O[C@@H]4COP(=O)(O)OC3C2O)c(=O)[nH]1 (stereo partly drawn) [Example 7, 2-amino-9-((2R,3R,3aS,7aR,9R,10R,10aR,15aR)-9-(6-amino-9H-purin-9-yl)-10-fluoro-3,5,13-trihydroxy-5,13-dioxidodecahydro-2H-difuro[3,2-d:3′,2′-k][1,3,7,10]tetraoxa[2,8]diphosphacyclotridecin-2-yl)-1,9-dihydro-6H-purin-6-one]
ΔTm at 150 µM (AQ STING (G230A-R293Q)): 15 °C | EC50 (WT STING [1]): 30 nM | ΔTm at 150 µM (WT STING [2]): 5.6 °C

Nc1nc2c(ncn2[C@@H]2O[C@@H]3COP(=O)(O)COC4C(F)[C@H](n5cnc6c(N)ncnc65)O[C@@H]4COP(=O)(O)OC3C2F)c(=O)[nH]1 (stereo partly drawn) [Example 8, 2-amino-9-((2R,3R,3aR,7aR,9R,10R,10aR,15aR)-9-(6-amino-9H-purin-9-yl)-3,10-difluoro-5,13-dihydrox-5,13-diox-idodecahdro-2H-difuro[3,2-d:3′,2′-k][1,3,7,10]tetraoxa[2,8]diphosphacyclotridecin-2-yl)-1,9-dihydro-6H-purin-6-one]
ΔTm at 150 µM (AQ STING (G230A-R293Q)): 18.6 °C | EC50 (WT STING [1]): 8 nM | ΔTm at 150 µM (WT STING [2]): 10.7 °C

Nc1ncnc2c1ncn2[C@@H]1O[C@@H]2COP(=O)(O)COC3C(O)[C@H](n4cnc5c(N)ncnc54)O[C@@H]3COP(=O)(O)COC2C1O (stereo partly drawn) [Example 9, (2R,3S,3aS,8aR,10R,11S,11aS,16aR)-2,10-bis(6-amino-9H-purin-9-yl)-3,6,11,14-tetrahydroxvdodecahydrodifuro[3,2-e:3′,2′-l][1,4,8,11]tetraoxa[2,9]diphosphacyclotetradecine 6,14-dioxide]
DSF ΔTm AQ STING (AQ STING (G230A-R293Q)): 0.1 °C | EC50 (WT STING [1]): > 100000 nM | DSF ΔTm WT STING (WT STING [2]): 0.1 °C
